The compounds below were run against T1, C5AR1 (Homo sapiens, UniProt P21730) (assay: hC5a DISCO IC50 assay (PathHunter beta-arrestin, antagonist mode)). Details: CHO-K1 C5AR1 beta-arrestin cell line; antagonist vs 1-10 nM C5a agonist; geometric mean values; read-out: C5aR IC50.
T1 construct: host or cells: CHO-K1
T1 sequence (P21730 1-350): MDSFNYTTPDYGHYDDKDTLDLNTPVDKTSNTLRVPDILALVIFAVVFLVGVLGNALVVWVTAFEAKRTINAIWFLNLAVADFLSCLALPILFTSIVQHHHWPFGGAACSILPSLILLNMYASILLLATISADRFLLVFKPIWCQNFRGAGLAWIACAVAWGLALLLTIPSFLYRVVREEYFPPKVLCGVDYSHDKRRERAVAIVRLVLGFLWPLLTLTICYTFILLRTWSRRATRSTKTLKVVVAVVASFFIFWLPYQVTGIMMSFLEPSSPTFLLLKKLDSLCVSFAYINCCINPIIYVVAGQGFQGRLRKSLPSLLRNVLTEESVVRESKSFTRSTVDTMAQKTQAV
Assay type: cell-based
How it was run: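 Antagonist added first, then 1-10 nM C5a agonist; cells incubated 1.5 h at 37 °C. Beta-arrestin signal developed with PathHunter detection reagent, 45 min at RT. IC50 in nmol/l from serial antagonist dilutions, reported as geometric mean of several measurements.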

SMILES	IC50 [nM]
COc1cccc2c1n(Cc1ccccc1C(F)(F)F)c(=O)n2[C@@H]1CCN(c2c(F)cccc2N2CCOCC2)C1 [Example 161, 1-[(R)-1-(2-Fluoro-6-morpholin-4-yl-phenyl)-pyrrolidin-3-yl]-4-methoxy-3-(2-trifluoromethyl-benzyl)-1,3-dihydro-benzoimidazol-2-one]	69
COc1cccc2c1n(Cc1ccccc1C(F)(F)F)c(=O)n2[C@@H]1CCN(c2c(F)cccc2CCCN2CCOCC2)C1 [Example 162, 1-{(R)-1-[2-Fluoro-6-(3-morpholin-4-yl-propyl)-phenyl]-pyrrolidin-3-yl}-4-methoxy-3-(2-trifluoromethyl-benzyl)-1,3-dihydro-benzoimidazol-2-one]	135
CCOC(=O)C1CN(C(=O)OC(C)(C)C)CCC1n1c(=O)n(Cc2ccccc2C(F)(F)F)c2c(OC)cccc21 (stereo not shown) [Example 164, 4-[4-Methoxy-2-oxo-3-(2-trifluoromethyl-benzyl)-2,3-dihydro-benzoimidazol-1-yl]-piperidine-1,3-dicarboxylic acid 1-tert-butyl ester 3-ethyl ester]	179
COc1cccc2c1n(Cc1ccccc1OC(C)C)c(=O)n2[C@@H]1CCN(c2c(C)cccc2F)C1 [Example 165, 1-[(R)-1-(2-Fluoro-6-methyl-phenyl)-pyrrolidin-3-yl]-3-(2-isopropoxy-benzyl)-4-methoxy-1,3-dihydro-benzoimidazol-2-one]	6
COc1cccc2c1n(Cc1ccccc1OC(C)C)c(=O)n2C1CCN(c2c(C)cccc2F)CC1 [Example 166, 1-[1-(2-Fluoro-6-methyl-phenyl)-piperidin-4-yl]-3-(2-isopropoxy-benzyl)-4-methoxy-1,3-dihydro-benzoimidazol-2-one]	17
COc1nccnc1Cn1c(=O)n([C@@H]2CCN(c3c(C)cccc3F)C2)c2cccc(OC)c21 [Example 169, 1-[(R)-1-(2-Fluoro-6-methyl-phenyl)-pyrrolidin-3-yl]-4-methoxy-3-(3-methoxy-pyrazin-2-ylmethyl)-1,3-dihydro-benzoimidazol-2-one]	17
COc1nccnc1Cn1c(=O)n(C2CCN(c3c(C)cccc3F)CC2)c2cccc(OC)c21 [Example 170, 1-[1-(2-Fluoro-6-methyl-phenyl)-piperidin-4-yl]-4-methoxy-3-(3-methoxy-pyrazin-2-ylmethyl)-1,3-dihydro-benzoimidazol-2-one]	45
COc1cc(C)nc2c1n(Cc1ccccc1C(F)(F)F)c(=O)n2[C@@H]1CCN(c2c(C)cccc2F)C1 [Example 171, 3-[(R)-1-(2-Fluoro-6-methyl-phenyl)-pyrrolidin-3-yl]-7-methoxy-5-methyl-1-(2-trifluoromethyl-benzyl)-1,3-dihydro-imidazo[4,5-b]pyridin-2-one]	64
COc1cccc2c1n(Cc1nnccc1OC(C)C)c(=O)n2[C@@H]1CCN(c2c(C)cccc2F)C1 [Example 173, 1-[(R)-1-(2-Fluoro-6-methyl-phenyl)-pyrrolidin-3-yl]-3-(4-isopropoxy-pyridazin-3-ylmethyl)-4-methoxy-1,3-dihydro-benzoimidazol-2-one]	107
COc1ncncc1Cn1c(=O)n([C@@H]2CCN(c3c(C)cccc3F)C2)c2cccc(OC)c21 [Example 175, 1-[(R)-1-(2-Fluoro-6-methyl-phenyl)-pyrrolidin-3-yl]-4-methoxy-3-(4-methoxy-pyrimidin-5-ylmethyl)-1,3-dihydro-benzoimidazol-2-one]	221
COc1cccc2c1n(Cc1cncnc1C(F)(F)F)c(=O)n2[C@@H]1CCN(c2c(C)cccc2F)C1 [Example 176, 1-[(R)-1-(2-Fluoro-6-methyl-phenyl)-pyrrolidin-3-yl]-4-methoxy-3-(4-trifluoromethyl-pyrimidin-5-ylmethyl)-1,3-dihydro-benzoimidazol-2-one]	48
COc1cccc2c1n(Cc1nccnc1OC(C)C)c(=O)n2[C@@H]1CCN(c2c(C)cccc2F)C1 [Example 177, 1-[(R)-1-(2-Fluoro-6-methyl-phenyl)-pyrrolidin-3-yl]-3-(3-isopropoxy-pyrazin-2-ylmethyl)-4-methoxy-1,3-dihydro-benzoimidazol-2-one]	24
COc1cccc2c1n(Cc1ccccc1C(F)(F)F)c(=O)n2C1CCCN(C(=O)OC(C)(C)C)CC1 (stereo not shown) [Example 179, 4-[4-Methoxy-2-oxo-3-(2-trifluoromethyl-benzyl)-2,3-dihydro-benzoimidazol-1-yl]-azepane-1-carboxylic acid tert-butyl ester]	122
COc1cccc2c1n(Cc1cnccc1C(C)C)c(=O)n2[C@@H]1CCN(c2c(C)cccc2F)C1 [Example 180, 1-[(R)-1-(2-Fluoro-6-methyl-phenyl)-pyrrolidin-3-yl]-3-(4-isopropyl-pyridin-3-ylmethyl)-4-methoxy-1,3-dihydro-benzoimidazol-2-one]	9
COc1cccc2c1n(Cc1cnccc1C(C)C)c(=O)n2C1CCN(c2c(C)cccc2F)CC1 [Example 181, 1-[1-(2-Fluoro-6-methyl-phenyl)-piperidin-4-yl]-3-(4-isopropyl-pyridin-3-ylmethyl)-4-methoxy-1,3-dihydro-benzoimidazol-2-one]	22
COc1cccc2c1n(Cc1ncccc1OC(C)C)c(=O)n2C1CCN(c2c(C)cccc2F)CC1 [Example 183, 1-[1-(2-Fluoro-6-methyl-phenyl)-piperidin-4-yl]-3-(3-isopropoxy-pyridin-2-ylmethyl)-4-methoxy-1,3-dihydro-benzoimidazol-2-one]	14
COc1cccc2c1n(Cc1cncnc1C(C)C)c(=O)n2[C@@H]1CCN(c2c(C)cccc2F)C1 [Example 186, 1-[(R)-1-(2-Fluoro-6-methyl-phenyl)-pyrrolidin-3-yl]-3-(4-isopropyl-pyrimidin-5-ylmethyl)-4-methoxy-1,3-dihydro-benzoimidazol-2-one]	14
COc1cccc2c1n(Cc1nccnc1C(C)C)c(=O)n2C1CCN(c2c(C)cccc2F)CC1 [Example 187, 1-[1-(2-Fluoro-6-methyl-phenyl)-piperidin-4-yl]-3-(3-isopropyl-pyrazin-2-ylmethyl)-4-methoxy-1,3-dihydro-benzoimidazol-2-one]	26
COc1cccc2c1n(Cc1ccccc1C(F)(F)F)c(=O)n2C1CC2CC1CN2C(=O)OC(C)(C)C (stereo not shown) [Example 188, 5-[4-Methoxy-2-oxo-3-(2-trifluoromethyl-benzyl)-2,3-dihydro-benzoimidazol-1-yl]-2-aza-bicyclo[2.2.1]heptane-2-carboxylic acid tert-butyl ester]	313

More lines, in order of falling IC50, values ahead:

IC50 [nM]	SMILES
591	COc1cccc2c1n(Cc1ccccc1C(F)(F)F)c(=O)n2[C@@H]1CCN(c2c(F)cccc2C(C)N2CC(OC)C2)C1 (stereo partly drawn) [Example 163, 1-((R)-1-{2-Fluoro-6-[1-(3-methoxy-azetidin-1-yl)-ethyl]-phenyl}-pyrrolidin-3-yl)-4-methoxy-3-(2-trifluoromethyl-benzyl)-1,3-dihydro-benzoimidazol-2-one]
544	COc1cccc2c1n(Cc1nnccc1C)c(=O)n2[C@@H]1CCN(c2c(C)cccc2F)C1 [Example 174, 1-[(R)-1-(2-Fluoro-6-methyl-phenyl)-pyrrolidin-3-yl]-4-methoxy-3-(4-methyl-pyridazin-3-ylmethyl)-1,3-dihydro-benzoimidazol-2-one]
275	COc1cccc2c1n(Cc1nnc(Cl)cc1OC(C)C)c(=O)n2[C@@H]1CCN(c2c(C)cccc2F)C1 [Example 172, 3-(6-Chloro-4-isopropoxy-pyridazin-3-ylmethyl)-1-[(R)-1-(2-fluoro-6-methyl-phenyl)-pyrrolidin-3-yl]-4-methoxy-1,3-dihydro-benzoimidazol-2-one]
49	COc1cccc2c1n(Cc1nccnc1OC(C)C)c(=O)n2C1CCN(c2c(C)cccc2F)CC1 [Example 178, 1-[1-(2-Fluoro-6-methyl-phenyl)-piperidin-4-yl]-3-(3-isopropoxy-pyrazin-2-ylmethyl)-4-methoxy-1,3-dihydro-benzoimidazol-2-one]
36	COc1cccc2c1n(Cc1ccccc1C(F)(F)F)c(=O)n2C1CCCN(c2c(C)cccc2F)CC1 (stereo not shown) [Example 184, 1-[1-(2-Fluoro-6-methyl-phenyl)-azepan-4-yl]-4-methoxy-3-(2-trifluoromethyl-benzyl)-1,3-dihydro-benzoimidazol-2-one]
36	COc1cccc2c1n(Cc1ccccc1C(F)(F)F)c(=O)n2C1CCCN(c2c(C)cccc2C)CC1 (stereo not shown) [Example 185, 1-[1-(2,6-Dimethyl-phenyl)-azepan-4-yl]-4-methoxy-3-(2-trifluoromethyl-benzyl)-1,3-dihydro-benzoimidazol-2-one]
10	COc1cccc2c1n(Cc1nccnc1C(F)(F)F)c(=O)n2C1CCN(c2c(C)cccc2F)CC1 [Example 168, 1-[1-(2-Fluoro-6-methyl-phenyl)-piperidin-4-yl]-4-methoxy-3-(3-trifluoromethyl-pyrazin-2-ylmethyl)-1,3-dihydro-benzoimidazol-2-one]
9	COc1cccc2c1n(Cc1ncccc1OC(C)C)c(=O)n2[C@@H]1CCN(c2c(C)cccc2F)C1 [Example 182, 1-[(R)-1-(2-Fluoro-6-methyl-phenyl)-pyrrolidin-3-yl]-3-(3-isopropoxy-pyridin-2-ylmethyl)-4-methoxy-1,3-dihydro-benzoimidazol-2-one]
6	COc1cccc2c1n(Cc1nccnc1C(F)(F)F)c(=O)n2[C@@H]1CCN(c2c(C)cccc2F)C1 [Example 167, 1-[(R)-1-(2-Fluoro-6-methyl-phenyl)-pyrrolidin-3-yl]-4-methoxy-3-(3-trifluoromethyl-pyrazin-2-ylmethyl)-1,3-dihydro-benzoimidazol-2-one]

From US11739070B2, “C5A receptor modulators” (IDORSIA PHARMACEUTICALS LTD, priority 2018, dated 2023)
